Measured values taken from article PMC5577603, “Marine Inspired 2-(5-Halo-1H-indol-3-yl)-N,N-dimethylethanamines as Modulators of Serotonin Receptors: An Example Illustrating the Power of Bromine as Part of the Uniquely Marine Chemical Space” (Marine Drugs, 2017).
Where two headings read alike, the source gives them in different places.

Legend:
Assay in all cases: receptor binding assay (NIMH PDSP)
5-HT5A = target: T1, 5-HT5A (Homo sapiens, UniProt P47898)
T1 construct: gene HTR5A; cloned receptor, NIMH PDSP panel
T1 sequence (P47898 whole entry): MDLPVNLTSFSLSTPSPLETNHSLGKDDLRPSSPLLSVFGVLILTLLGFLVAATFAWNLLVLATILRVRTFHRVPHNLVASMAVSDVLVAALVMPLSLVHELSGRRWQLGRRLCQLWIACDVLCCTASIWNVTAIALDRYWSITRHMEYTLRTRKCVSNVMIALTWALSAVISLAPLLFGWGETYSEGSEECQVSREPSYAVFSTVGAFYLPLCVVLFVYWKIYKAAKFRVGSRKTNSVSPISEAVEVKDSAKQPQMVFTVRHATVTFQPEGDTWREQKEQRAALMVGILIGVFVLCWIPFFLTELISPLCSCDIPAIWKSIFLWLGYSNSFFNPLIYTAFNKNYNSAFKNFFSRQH
Excerpt: receptor binding assay (NIMH PDSP) on 5-HT5A

5-HT1B = target: T2, 5-HT1B (Homo sapiens, UniProt P28222)
T2 construct: gene HTR1B; cloned receptor, NIMH PDSP panel
T2 sequence (P28222 whole entry): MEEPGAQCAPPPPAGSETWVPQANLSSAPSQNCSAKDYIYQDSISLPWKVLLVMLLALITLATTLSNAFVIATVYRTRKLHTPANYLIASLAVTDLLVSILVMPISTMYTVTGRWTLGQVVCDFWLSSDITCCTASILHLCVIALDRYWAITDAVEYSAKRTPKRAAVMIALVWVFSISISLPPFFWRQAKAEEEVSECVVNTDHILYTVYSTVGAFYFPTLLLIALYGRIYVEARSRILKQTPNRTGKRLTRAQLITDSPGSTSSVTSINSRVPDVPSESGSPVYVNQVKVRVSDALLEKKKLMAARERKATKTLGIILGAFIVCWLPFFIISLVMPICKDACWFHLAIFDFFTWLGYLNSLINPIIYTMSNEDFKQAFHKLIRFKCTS
Excerpt: receptor binding assay (NIMH PDSP) on 5-HT1B

5-HT7 = target: T3, 5-HT7 (Homo sapiens, UniProt P34969)
T3 construct: gene HTR7; cloned receptor, NIMH PDSP panel
T3 sequence (P34969 whole entry): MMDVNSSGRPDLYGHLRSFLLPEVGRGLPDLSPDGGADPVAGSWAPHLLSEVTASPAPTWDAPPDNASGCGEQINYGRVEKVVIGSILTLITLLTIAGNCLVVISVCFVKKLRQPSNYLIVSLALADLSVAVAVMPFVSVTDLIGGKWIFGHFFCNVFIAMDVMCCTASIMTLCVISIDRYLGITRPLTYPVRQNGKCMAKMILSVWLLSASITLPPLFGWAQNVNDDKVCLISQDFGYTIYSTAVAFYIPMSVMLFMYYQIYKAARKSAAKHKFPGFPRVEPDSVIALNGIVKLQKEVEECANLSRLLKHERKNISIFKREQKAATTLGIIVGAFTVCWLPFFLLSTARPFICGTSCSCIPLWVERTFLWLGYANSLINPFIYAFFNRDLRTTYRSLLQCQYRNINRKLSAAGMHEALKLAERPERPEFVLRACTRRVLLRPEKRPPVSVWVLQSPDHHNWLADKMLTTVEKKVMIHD
Excerpt: receptor binding assay (NIMH PDSP) on 5-HT7

5-HT1D = target: T4, 5-HT1D (Homo sapiens, UniProt P28221)
T4 construct: gene HTR1D; cloned receptor, NIMH PDSP panel
T4 sequence (P28221 whole entry): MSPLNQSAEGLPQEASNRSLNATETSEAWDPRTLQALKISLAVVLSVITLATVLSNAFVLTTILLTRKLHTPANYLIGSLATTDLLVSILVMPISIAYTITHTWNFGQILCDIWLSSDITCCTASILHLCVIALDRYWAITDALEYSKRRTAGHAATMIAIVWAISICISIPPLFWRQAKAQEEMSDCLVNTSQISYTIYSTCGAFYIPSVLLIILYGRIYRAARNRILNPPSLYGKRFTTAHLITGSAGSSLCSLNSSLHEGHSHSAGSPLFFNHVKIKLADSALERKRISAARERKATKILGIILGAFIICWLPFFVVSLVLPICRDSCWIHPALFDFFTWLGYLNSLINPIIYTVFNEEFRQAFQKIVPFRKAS
Excerpt: receptor binding assay (NIMH PDSP) on 5-HT1D

5-HT1E = target: T5, 5-HT1E (Homo sapiens, UniProt P28566)
T5 construct: gene HTR1E; cloned receptor, NIMH PDSP panel
T5 sequence (P28566 whole entry): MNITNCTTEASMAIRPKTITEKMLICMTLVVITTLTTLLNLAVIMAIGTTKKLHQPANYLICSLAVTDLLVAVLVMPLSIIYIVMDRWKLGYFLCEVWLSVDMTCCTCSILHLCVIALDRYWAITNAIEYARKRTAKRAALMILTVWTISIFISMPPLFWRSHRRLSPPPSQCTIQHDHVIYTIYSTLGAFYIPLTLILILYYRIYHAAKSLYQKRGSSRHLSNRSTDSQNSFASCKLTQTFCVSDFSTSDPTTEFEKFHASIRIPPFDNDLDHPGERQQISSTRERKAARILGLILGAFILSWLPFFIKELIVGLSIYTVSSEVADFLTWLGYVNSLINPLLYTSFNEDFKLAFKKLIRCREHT
Excerpt: receptor binding assay (NIMH PDSP) on 5-HT1E

5-HT6 = target: T6, 5-HT6 (Homo sapiens, UniProt P50406)
T6 construct: gene HTR6; cloned receptor, NIMH PDSP panel
T6 sequence (P50406 whole entry): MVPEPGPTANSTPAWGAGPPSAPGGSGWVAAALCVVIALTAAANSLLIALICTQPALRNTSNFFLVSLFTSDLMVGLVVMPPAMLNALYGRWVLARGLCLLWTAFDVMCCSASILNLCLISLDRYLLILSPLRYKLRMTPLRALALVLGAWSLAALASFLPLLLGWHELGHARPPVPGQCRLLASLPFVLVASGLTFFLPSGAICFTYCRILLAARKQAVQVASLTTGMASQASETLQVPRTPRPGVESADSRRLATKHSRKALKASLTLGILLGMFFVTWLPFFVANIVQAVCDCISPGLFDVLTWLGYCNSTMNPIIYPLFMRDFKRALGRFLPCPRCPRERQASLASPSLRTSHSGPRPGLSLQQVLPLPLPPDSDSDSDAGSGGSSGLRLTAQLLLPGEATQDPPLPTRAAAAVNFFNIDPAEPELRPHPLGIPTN
Excerpt: receptor binding assay (NIMH PDSP) on 5-HT6

5-HT1A = target: T7, 5-HT1A (Homo sapiens, UniProt P08908)
T7 construct: gene HTR1A; cloned receptor, NIMH PDSP panel
T7 sequence (P08908 1-422): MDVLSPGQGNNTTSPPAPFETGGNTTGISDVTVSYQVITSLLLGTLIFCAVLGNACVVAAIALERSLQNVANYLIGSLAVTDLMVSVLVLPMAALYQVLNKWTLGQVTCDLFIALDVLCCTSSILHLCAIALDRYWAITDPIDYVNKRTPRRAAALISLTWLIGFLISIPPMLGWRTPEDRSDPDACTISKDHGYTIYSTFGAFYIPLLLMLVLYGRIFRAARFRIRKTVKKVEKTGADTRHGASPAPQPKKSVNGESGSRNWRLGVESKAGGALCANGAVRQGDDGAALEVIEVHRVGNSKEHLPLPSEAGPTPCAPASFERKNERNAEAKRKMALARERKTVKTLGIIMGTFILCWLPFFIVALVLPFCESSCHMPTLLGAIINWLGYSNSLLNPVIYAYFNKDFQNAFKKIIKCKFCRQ
Excerpt: receptor binding assay (NIMH PDSP) on 5-HT1A

5-HT2B = target: T8, 5-HT2B (Homo sapiens, UniProt P41595)
T8 construct: gene HTR2B; cloned receptor, NIMH PDSP panel
T8 sequence (P41595 whole entry): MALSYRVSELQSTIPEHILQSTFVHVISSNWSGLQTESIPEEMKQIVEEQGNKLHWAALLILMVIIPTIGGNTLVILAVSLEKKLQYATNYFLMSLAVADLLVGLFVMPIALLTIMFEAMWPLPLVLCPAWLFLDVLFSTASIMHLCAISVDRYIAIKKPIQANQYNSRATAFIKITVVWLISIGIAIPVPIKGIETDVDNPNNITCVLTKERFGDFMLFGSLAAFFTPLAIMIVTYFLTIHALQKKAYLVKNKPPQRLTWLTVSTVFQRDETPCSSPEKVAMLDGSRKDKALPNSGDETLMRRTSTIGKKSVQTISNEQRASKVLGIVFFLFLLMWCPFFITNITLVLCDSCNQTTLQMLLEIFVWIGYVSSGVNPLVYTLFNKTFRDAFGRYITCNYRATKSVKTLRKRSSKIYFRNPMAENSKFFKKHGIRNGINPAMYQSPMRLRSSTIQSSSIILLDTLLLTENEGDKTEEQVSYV

Row | Compound | Ki (5-HT5A) [nM] | Ki (5-HT1B) [nM] | Ki (5-HT7) [nM] | Ki (5-HT1D) [nM] | Ki (5-HT1E) [nM] | Ki (5-HT6) [nM] | Ki (5-HT1A; read-out: Compound 2a Ki) [nM] | Ki (5-HT1A) [nM] | Ki (5-HT2B) [nM]
1 | CN(C)CCc1c[nH]c2ccccc12 [2a, 2-(1H-indol-3-yl)-N,N-dimethylethanamine] | > 10000 | 66 ± 9 | 77 ± 16 | 29.3 ± 3.7 | > 10000 | 189 ± 32.5 |  |  | 
2 | 2-(1H-indol-3-yl)-N,N-dimethylethanamine [2a] |  |  |  |  |  |  | 110 ± 17 |  | 
3 | CN(C)CCc1c[nH]c2ccc(I)cc12 [2e, 2-(5-iodo-1H-indol-3-yl)-N,N-dimethylethanamine] | 1250 | 43 ± 5 | 116 ± 13 | 8.5 ± 1.38 | 310 ± 33 | 198 ± 20 |  | 130 ± 16 | 98 ± 4
